pEC50: −log10 of the molar value.
Experiments:
[1] = target: human CB2 receptors (Homo sapiens (Human), UniProt P34972); assay: functional cAMP assay, CB2; format: cell-based; conditions: functional cAMP assay, CHO cells expressing human CB2; read-out: human CB2 EC50
Procedure, shortened: (§1)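 CHO cells expressing human CB1 or CB2 were preincubated 30 min at 30 °C in Krebs Ringer bicarbonate buffer with 1 mM IBMX, then exposed to compound for 30 min at 30 °C. cAMP was measured by TR-FRET (cAMP-Nano-TRF) against a 10 μM–0.13 nM cAMP standard curve, and EC50 values were derived.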

[2] = target: human CB1 receptors (Homo sapiens (Human), UniProt P21554); assay: functional cAMP assay, CB1; format: cell-based; conditions: functional cAMP assay, CHO cells expressing human CB1; read-out: human CB1 EC50
Sequence of human CB1 receptors (P21554 whole entry): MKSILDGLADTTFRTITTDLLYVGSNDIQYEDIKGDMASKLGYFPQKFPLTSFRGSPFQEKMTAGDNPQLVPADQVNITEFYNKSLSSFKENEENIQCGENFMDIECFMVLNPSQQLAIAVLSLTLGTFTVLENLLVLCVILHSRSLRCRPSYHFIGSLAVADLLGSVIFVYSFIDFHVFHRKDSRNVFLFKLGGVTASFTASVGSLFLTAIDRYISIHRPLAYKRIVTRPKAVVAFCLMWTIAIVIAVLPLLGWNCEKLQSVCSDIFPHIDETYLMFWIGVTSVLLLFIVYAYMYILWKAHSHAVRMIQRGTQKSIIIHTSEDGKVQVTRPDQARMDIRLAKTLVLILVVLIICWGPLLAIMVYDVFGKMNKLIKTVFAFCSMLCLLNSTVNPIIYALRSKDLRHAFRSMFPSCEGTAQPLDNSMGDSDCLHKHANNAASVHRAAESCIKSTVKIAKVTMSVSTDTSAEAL
Procedure, shortened: as §1

Sequence of human CB2 receptors (P34972 whole entry): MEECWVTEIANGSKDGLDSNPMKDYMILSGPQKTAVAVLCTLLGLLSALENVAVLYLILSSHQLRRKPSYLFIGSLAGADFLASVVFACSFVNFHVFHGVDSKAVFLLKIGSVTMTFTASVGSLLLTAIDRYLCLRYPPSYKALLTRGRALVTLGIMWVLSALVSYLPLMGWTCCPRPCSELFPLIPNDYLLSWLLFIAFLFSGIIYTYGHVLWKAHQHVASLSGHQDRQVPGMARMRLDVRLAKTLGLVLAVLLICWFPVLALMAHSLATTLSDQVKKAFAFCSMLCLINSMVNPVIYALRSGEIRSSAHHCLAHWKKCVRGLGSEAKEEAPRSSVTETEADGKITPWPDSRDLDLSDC

| SMILES | pEC50 [1] | pEC50 [2] |
| --- | --- | --- |
| CN(C)C(=O)C(CC1CCC1)NC(=O)c1cnc(C2CC2)c(OCC2CC2)n1 (stereo not shown) [Example 103, 5-Cyclopropyl-6-cyclopropylmethoxy-pyrazine-2-carboxylic acid (2-cyclobutyl-1-dimethylcarbamoyl-ethyl)-amide] | 7.72 | < 5.00 |
| NC(=O)C(CC1CCC1)NC(=O)c1cnc(C2CC2)c(OCC2CC2)n1 (stereo not shown) [Example 104, 5-Cyclopropyl-6-cyclopropylmethoxy-pyrazine-2-carboxylic acid (1-carbamoyl-2-cyclobutyl-ethyl)-amide] | 7.37 | < 5.00 |
| O=C(NC(CO)CC1CCC1)c1cnc(C2CC2)c(OCC2CC2)n1 (stereo not shown) [Example 105, 5-Cyclopropyl-6-cyclopropylmethoxy-pyrazine-2-carboxylic acid (1-cyclobutylmethyl-2-hydroxy-ethyl)-amide] | 7.43 | < 5.00 |
| CC(C)(CC(N)=O)NC(=O)c1cnc(C2CC2)c(OCC2CC2)n1 [Example 106] | 7.36 | < 5.00 |
| CC(C)(CC(N)=O)NC(=O)c1cnc(N2CC(F)(F)C2)c(OCC2CC2)n1 [Example 107, 6-Cyclopropylmethoxy-5-(3,3-difluoro-azetidin-1-yl)-pyrazine-2-carboxylic acid (2-carbamoyl-1,1-dimethyl-ethyl)-amide] | 7.93 | 6.06 |
